Entries after “also recorded” stand apart in the source; their conditions may differ.
Key:
Format in all cases: cell-based, human
AICS-16 (beta Actin) = assay: Predicted, label free imaging of drug effects (FIG. 10F, 10H); settings: AICS-16 cells; predicted label free images
Excerpt: (§1) FIGS. 10A-10H show the predicted, label free imaging effects of different drugs on different, differentiated, hiPSC cell lines. […] Brefeldin inhibits protein transport from the endoplasmic reticulum to the golgi complex indirectly by preventing association of COP-I coat to the Golgi membrane.

AICS-61 (Histone) = assay: Predicted, label free imaging of drug effects (FIG. 10B, 10G); settings: AICS-61 cells; predicted label free images
Excerpt: as §1

AICS-44 (Golgi) = assay: Predicted, label free imaging of drug effects (FIG. 10C, 10E); settings: AICS-44 cells; predicted label free images
Excerpt: as §1

[1] = tested on: AICS-24 (non-muscle Myosin); assay: Predicted, label free imaging of drug effects (FIG. 10D); settings: AICS-24 cells; predicted label free images
Excerpt: as §1

[2] = tested on: Cell Line ID: AICS-0012 c1.105, Alpha tubulin mEGFP-tagged; assay: Fluorescence imaging of Alpha tubulin mEGFP-tagged hiPSCs (FIG. 9E-9F); settings: 5 μM, 2 hours, vs DMSO control
Excerpt: (§2) Predicted imaging was also used with H2B (DNA) on Cell Line ID: AICS-0012 c1.105, Alpha tubulin mEGFP-tagged, to confirm the phenotype by two structures from the same cells.

[3] = tested on: hiPSC Cell Line ID: AICS-0061 c1.36 Histone H2B type 1-J mEGFP-tagged; assay: Fluorescence imaging of Histone H2B mEGFP-tagged hiPSCs (FIG. 8E-8F); settings: 5 μM, 2 hours; mEGFP DNA tag; vs DMSO control
Excerpt: (§3) The fluorescent signal from the hiPSC Cell Line ID: AICS-0061 c1.36 Histone H2B type 1-J mEGFP-tagged (DNA tag) was used to train and validate the label free prediction model.

[4] = tested on: hiPSC Cell Line ID: AICS-0061 c1.36 Histone H2B type 1-J mEGFP-tagged; assay: Label free prediction of condensed DNA from brightfield images (FIG. 8C-8D); settings: 5 μM, 2 hours, vs DMSO control
Excerpt: as §3
FIGS. 8C and 8D show the predicted images, based on the label free prediction model, obtained by imaging the nucleus of the cells with brightfield microscopy, and predicting the location and amount of condensed DNA, based on the trained model.

[5] = tested on: EGFP-tagged cell lines AICS-23, AICS-44, AICS-61, AICS-24 and AICS-16; assay: Drug perturbation signature using label free prediction of DNA (FIG. 11A-11C); settings: population statistics after DNA segmentation of label free prediction
Method: FIG. 11A-11C show the drug perturbation signature using label free prediction, as described herein.
These signatures were distinct from those of other drug perturbations such as BIX, Brefeldin, H89, and Monensin. The identification of these perturbation signatures were performed in the following EGFP-tagged cell lines; AICS-23 (tight junction), AICS-44 (Golgi), AICS-61 (Histone), AICS-24 (non-muscle Myosin) and AICS-16 (beta Actin) without additional introduction of DNA signals.

hiPSC = assay: Effect on microtubules and DNA during mitosis (FIG. 7)
Excerpt: Microtubules, DNA, and Cell membrane are each labeled.

[6] = tested on: Cell Line ID: AICS-0012 c1.105, Alpha tubulin mEGFP-tagged; assay: Label free prediction of condensed DNA from brightfield images (FIG. 9C-9D); settings: 5 μM, 2 hours, vs DMSO control
Excerpt: as §2
FIGS. 9C and 9D show the predicted images, based on the label free prediction model, obtained by imaging the nucleus of the cells with brightfield microscopy, and predicting the location and amount of condensed DNA, based on the trained model.

In the case of `C/C=C(/C)C(=O)O[C@H]1C(C)=C2[C@H]([C@@H]1OC(=O)CCCCCCC)[C@@](C)(OC(C)=O)C[C@H](OC(=O)CCC)[C@@]1(O)[C@H]2OC(=O)[C@@]1(C)O` [Thapsigargin], the “predicted effect on DNA, nuclear size, or microtubule formation” value (from here on “predicted effect on DNA, nuclear size”) (AICS-16 (beta Actin)) is reported as “no predicted effect on DNA, nuclear size, or microtubule formation”.

`O=S(=O)(NCCNC/C=C/c1ccc(Br)cc1)c1cccc2cnccc12` [H89] was tested, and the “predicted effect on DNA, nuclear size” value (AICS-61 (Histone)) was “no predicted effect on DNA, nuclear size, or microtubule formation”.

For `C[C@H]1CCC/C=C/[C@@H]2C[C@H](O)C[C@H]2[C@H](O)/C=C/C(=O)O1` [Brefeldin], the “predicted effect on DNA, nuclear size” value (AICS-44 (Golgi)) was “no predicted effect on DNA, nuclear size, or microtubule formation”.

`CC[C@@]1([C@@H]2O[C@@H]([C@H]3O[C@@](O)(CO)[C@H](C)C[C@@H]3C)C[C@@H]2C)CC[C@H]([C@]2(C)CC[C@]3(C[C@H](O)[C@@H](C)[C@@H]([C@@H](C)[C@@H](OC)[C@H](C)C(=O)O)O3)O2)O1` [Monensin] was tested, and the “predicted effect on DNA, nuclear size” value [1] was “no predicted effect on DNA, nuclear size, or microtubule formation”.

`CC(=O)O[C@H]1C(=O)[C@@]2(C)[C@H]([C@H](OC(=O)c3ccccc3)[C@]3(O)C[C@H](OC(=O)[C@H](O)[C@@H](NC(=O)c4ccccc4)c4ccccc4)C(C)=C1C3(C)C)[C@]1(OC(C)=O)CO[C@@H]1C[C@@H]2O` [Paclitaxel] was tested, and the “microtubule formation, fluorescence image” value [2] was “increase in microtubule formation”, the “condensed DNA, fluorescence image” value [3] was “increase in condensed DNA” and the “amount of condensed DNA in predicted images” value [4] was “higher than the control cells”. For the same molecule, the “condensed DNA frequency (perturbation signature in predicted images)” value [5] was “increase in frequency of DNA condensation frequency; also recorded: increased condensed DNA Frequency”, the “nuclear density (perturbation signature in predicted images)” value [5] was “higher nuclear density” and the “nuclear volume (perturbation signature in predicted images)” value [5] was “larger nuclear volume”. For the same molecule, the microtubule bundle thickness (hiPSC) was “increases microtubule bundle thickness”, the “effect on hiPSC division” value (hiPSC; mitosis) was “arrest of cells in metaphase” and the microtubule density (hiPSC; mitosis, FIG. 7) was “increase in microtubule density”. For the same molecule, the “predicted effect on DNA, nuclear size” value (AICS-61 (Histone)) was “condensed DNA (condensed microtubules)” and the “amount of condensed DNA in predicted images” value [6] was “higher than the control cells”.

For `COc1cc2nc(N3CCCN(C)CC3)nc(NC3CCN(Cc4ccccc4)CC3)c2cc1OC` [BIX-01294], the “predicted effect on DNA, nuclear size” value (AICS-44 (Golgi)) was “no predicted effect on DNA, nuclear size, or microtubule formation”.
